Experimental data: ChEMBL document CHEMBL1201862, “PubChem BioAssay data set” (2004)
Active and inactive are the calls of the source.

Assays:
[1] = growth inhibition of yeast DHODH-expressing 3D7 parasites – SYBR Green, dry powder samples, dose response (AID 1159570); type: functional, cell-based;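 also: parasite growth measured after 72 hours of compound exposure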
[2] = toxicity to human HepG2 hepatoma cells – cell-based, plate reader, dry powder samples, cytotoxicity control, dose response (AID 1159569); type: functional;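 also: inhibitor potency with signal falling toward the positive control level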
[3] = P. falciparum Dd2 growth inhibitors, dose response, SYBR Green, cherry-picked samples (AID 1159567); type: functional, cell-based
[4] = Dd2 malaria parasite growth inhibition potency – SYBR Green, dry powder samples, dose response (AID 1159566); type: functional, cell-based;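 also: potency for growth inhibition with lower SYBR green DNA signal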
[5] = Plasmodium falciparum Dd2 Sybr green parasite growth Measured in Cell-Based and Microorganism Combination System Using Plate Reader - 2153-01_Inhibitor_Dose_DryPowder_Activity_Set3.; type: functional
[6] = growth inhibition of PfATP4-mutant resistant parasites – NITD609-resistant line, SYBR Green, dry powder, dose response (AID 1159571); type: functional, cell-based;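 also: parasites synchronized at ring stage by sorbitol before testing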
[7] = HepG2 hepatoma cell viability loss – plate reader, dry powder, cytotoxicity control, dose response (AID 651947); type: functional, cell-based
[8] = viability loss in HEK293T cells – cell-based, CellTiter-Glo luminescence, dry powder, set 6, cytotoxicity control, dose response (AID 651949); type: functional; conditions: HEK293
[9] = IC50 of insulin release inhibition, rat insulinoma INS-1E line, 5 mM glucose, cell-based (AID 1117331); type: functional
[10] = glucagon-like peptide-1 release potency in STC-1, concentration-response, half-maximal inhibitory concentration in the STC-1 line (AID 1117345); type: functional, cell-based
[11] = Potency on glucagon-like peptide 1 release, dose-response in NCI-H716 cell line, half maximal inhibitory concentration (AID 1117344); type: functional, cell-based
[12] = biological target: T1, Methionyl-tRNA synthetase, putative (Trypanosoma brucei brucei, UniProt Q38C91); type: functional, Trypanosoma brucei brucei strain 927/4 GUTat10.1
T1 sequence (Q38C91 whole entry): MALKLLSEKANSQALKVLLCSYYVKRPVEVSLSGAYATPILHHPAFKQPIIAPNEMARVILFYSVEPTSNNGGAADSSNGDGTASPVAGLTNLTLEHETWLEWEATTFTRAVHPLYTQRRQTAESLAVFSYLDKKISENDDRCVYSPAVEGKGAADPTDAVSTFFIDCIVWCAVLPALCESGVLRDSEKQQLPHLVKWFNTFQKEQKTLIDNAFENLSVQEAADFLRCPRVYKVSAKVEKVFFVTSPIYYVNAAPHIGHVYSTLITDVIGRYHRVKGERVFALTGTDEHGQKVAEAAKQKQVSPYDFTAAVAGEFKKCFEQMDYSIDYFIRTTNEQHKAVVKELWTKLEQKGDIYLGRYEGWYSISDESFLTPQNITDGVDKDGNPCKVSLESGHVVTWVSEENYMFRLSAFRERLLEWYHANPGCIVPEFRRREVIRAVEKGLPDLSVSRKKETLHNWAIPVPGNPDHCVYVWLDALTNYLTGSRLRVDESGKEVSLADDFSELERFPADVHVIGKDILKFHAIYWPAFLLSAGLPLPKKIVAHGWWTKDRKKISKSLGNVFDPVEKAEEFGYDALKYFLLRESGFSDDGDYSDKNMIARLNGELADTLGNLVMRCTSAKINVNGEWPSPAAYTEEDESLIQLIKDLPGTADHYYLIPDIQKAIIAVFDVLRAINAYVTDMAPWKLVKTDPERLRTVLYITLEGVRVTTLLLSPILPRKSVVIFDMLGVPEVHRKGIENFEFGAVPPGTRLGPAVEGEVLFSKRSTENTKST

[13] = Counterscreen for inhibitors of Trypanosoma brucei methionyl tRNA synthetase (MetRS): Luminescence-based cell-based high throughput dose response assay to identify compounds that are cytotoxic to Jurkat human T lymphocyte cells.; type: functional
[14] = biological target: T1, Methionyl-tRNA synthetase, putative; type: functional, Trypanosoma brucei brucei strain 927/4 GUTat10.1; remark: listed apart in the source
[15] = Late stage counterscreen for inhibitors of Trypanosoma brucei methionyl tRNA synthetase (MetRS): Luminescence-based cell-based high throughput dose response assay to identify compounds that are cytotoxic to Jurkat human T lymphocyte cells.; type: functional
[16] = A Cell-Based Confirmatory Screen for Compounds that Inhibit VEEV, TC-83 (8).; type: functional
[17] = A Cell-Based Confirmatory Screen for Compounds that Inhibit VEEV, TC-83 (5).; type: functional
[18] = biological target: Troponin, cardiac muscle (Homo sapiens, UniProt P19429+P45379+P63316); test: Fluorescence-based biochemical high throughput dose response assay for activators of the calcium sensitivity of cardiac Regulated Thin Filaments (RTF). [Related pubchem assays (depositor defined):AID493008, AID493018, AID504382, AID504383]; type: protein-complex assay
[19] = biological target: T2, Fibrinogen beta chain (Homo sapiens, UniProt P02675); test: Fluorescence polarization-based biochemical high throughput dose response assay to identify inhibitors that disrupt the binding of a cyclic peptide (Tn6) to the fibrin proteolytic product D-Dimer and fragment E complex [DD(E )].
T2 sequence (P02675 whole entry, the tested form may be a part): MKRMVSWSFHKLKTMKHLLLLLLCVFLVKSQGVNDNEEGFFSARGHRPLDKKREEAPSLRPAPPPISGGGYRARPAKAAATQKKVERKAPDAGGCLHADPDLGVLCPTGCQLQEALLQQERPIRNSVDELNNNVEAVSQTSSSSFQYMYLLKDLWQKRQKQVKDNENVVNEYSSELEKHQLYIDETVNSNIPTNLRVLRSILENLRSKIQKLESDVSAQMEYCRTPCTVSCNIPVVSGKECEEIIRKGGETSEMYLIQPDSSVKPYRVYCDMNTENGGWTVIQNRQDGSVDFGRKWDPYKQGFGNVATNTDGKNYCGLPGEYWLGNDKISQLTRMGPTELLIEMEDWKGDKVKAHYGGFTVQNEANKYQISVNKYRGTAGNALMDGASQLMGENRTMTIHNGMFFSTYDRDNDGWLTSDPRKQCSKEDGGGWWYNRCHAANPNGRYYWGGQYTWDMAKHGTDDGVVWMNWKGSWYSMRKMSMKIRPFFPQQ

[20] = biological target: T2, Fibrinogen beta chain; test: Fluorescence polarization-based biochemical high throughput dose response assay to identify inhibitors that disrupt the binding of a cyclic peptide (Tn7) to the fibrin proteolytic product D-Dimer and fragment E complex [DD(E )].
[21] = BioA aminotransferase inhibition, coupled fluorescent readout – biochemical, coupled fluorescence displacement, 20-point, dry powder, dose response (AID 743357); type: functional
[22] = viability loss in HEK293 cells – cell-based, luminescence, dry powder, set 12, cytotoxicity control, dose response (AID 743354); type: functional
[23] = biological target: Beta-galactosidase (Escherichia coli, UniProt Q8VNN2); test: Dose response counterscreen for EBI2 assay utilizing the enzyme, b-galactosidase.; type: functional
Chain of Beta-galactosidase (Q8VNN2 whole entry): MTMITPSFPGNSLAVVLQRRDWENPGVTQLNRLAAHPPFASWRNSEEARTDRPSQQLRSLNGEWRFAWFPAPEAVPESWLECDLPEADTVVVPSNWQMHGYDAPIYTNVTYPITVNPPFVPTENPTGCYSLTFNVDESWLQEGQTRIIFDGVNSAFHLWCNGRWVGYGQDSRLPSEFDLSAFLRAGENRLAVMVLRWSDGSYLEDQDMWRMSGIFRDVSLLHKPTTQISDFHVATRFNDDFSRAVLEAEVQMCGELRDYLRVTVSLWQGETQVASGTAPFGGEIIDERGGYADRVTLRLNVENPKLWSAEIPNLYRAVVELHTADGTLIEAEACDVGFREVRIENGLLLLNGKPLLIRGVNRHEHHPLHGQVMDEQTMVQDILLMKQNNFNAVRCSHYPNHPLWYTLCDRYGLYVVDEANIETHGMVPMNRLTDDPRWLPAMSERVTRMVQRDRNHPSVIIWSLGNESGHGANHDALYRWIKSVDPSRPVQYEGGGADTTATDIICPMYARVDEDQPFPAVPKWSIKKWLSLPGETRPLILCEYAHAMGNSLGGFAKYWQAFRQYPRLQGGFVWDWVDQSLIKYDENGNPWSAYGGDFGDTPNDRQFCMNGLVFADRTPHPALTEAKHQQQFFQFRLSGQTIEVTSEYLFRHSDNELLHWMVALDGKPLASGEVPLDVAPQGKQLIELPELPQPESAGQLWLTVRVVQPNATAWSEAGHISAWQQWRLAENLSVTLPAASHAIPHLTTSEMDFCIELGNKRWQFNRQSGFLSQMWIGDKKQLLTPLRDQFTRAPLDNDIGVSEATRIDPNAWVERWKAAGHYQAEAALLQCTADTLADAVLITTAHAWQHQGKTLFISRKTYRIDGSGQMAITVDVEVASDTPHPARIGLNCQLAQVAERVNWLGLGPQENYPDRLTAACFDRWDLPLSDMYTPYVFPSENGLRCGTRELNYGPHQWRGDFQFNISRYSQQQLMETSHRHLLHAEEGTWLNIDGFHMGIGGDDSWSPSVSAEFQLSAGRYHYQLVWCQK

[24] = biological target: T3, G-protein coupled receptor 183 (Homo sapiens, UniProt P32249); test: Dose-response confirmation of small molecule antagonists of the EBI2 receptor via a luminescent beta-arrestin assay.; type: functional
T3 sequence (P32249 whole entry): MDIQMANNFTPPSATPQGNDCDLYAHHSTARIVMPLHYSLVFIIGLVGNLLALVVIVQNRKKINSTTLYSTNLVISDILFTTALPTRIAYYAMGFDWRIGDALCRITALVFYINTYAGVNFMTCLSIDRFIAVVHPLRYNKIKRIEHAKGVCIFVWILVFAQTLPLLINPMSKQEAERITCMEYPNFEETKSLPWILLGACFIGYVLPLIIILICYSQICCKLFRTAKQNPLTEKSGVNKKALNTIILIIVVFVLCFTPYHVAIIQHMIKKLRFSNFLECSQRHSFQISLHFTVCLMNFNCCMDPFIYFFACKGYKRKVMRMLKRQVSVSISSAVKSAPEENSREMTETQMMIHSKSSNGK

[25] = biological target: T3, G-protein coupled receptor 183; test: SAR confirmation of small molecule antagonists of the EBI2 receptor via a luminescent beta-arrestin assa.; type: functional

CO[C@@H]1CN(C)C(=O)c2ccc(NC(=O)C3CC3)cc2OC[C@@H](C)N(Cc2cc(F)ccc2F)C[C@H]1C
AC50 [1]: 5.77 µM (active) | AC50 [2]: 76.2 µM (active) | AC50 [3]: 1.22 µM (active) | AC50 [4]: 0.957 µM (active) | AC50 [5]: 2.08 µM (active) | AC50 [6]: 1.79 µM (active)

CS(=O)(=O)c1ccc(CSc2nnc(-c3ccccc3)o2)cc1
AC50 [7]: 0.28 µM (active) | AC50 [8]: 49 µM (active)

NC(=O)c1cccnc1 [NIACINAMIDE]
IC50 [9]: > 33.3 µM (inactive) | IC50 [10]: > 40 µM (inactive) | IC50 [11]: > 40 µM (inactive)

O=C(NCc1nc2ccccc2[nH]1)C1=C[C@@H](c2ccc(Br)cc2)C[C@@H](OCCCCO)O1
IC50 [12]: 0.551 µM (active) | IC50 [13]: 83.3 µM (inactive) | IC50 [14]: 0.27 µM (active) | IC50 [15]: 48.4 µM (inactive)

O=c1c2cc([N+](=O)[O-])ccc2nc(CN2CCNCC2)n1-c1ccccc1
IC50 [16]: < 0.168 µM (active) | IC50 [17]: 0.15 µM (active)

[O-][n+]1c2c([n+]([O-])c3cc(N4CCCC4)c(F)cc31)CCC2
EC50 [18]: > 2.65 µM (active) | IC50 [19]: 26.1 µM (inactive) | IC50 [20]: > 83.3 µM (inactive)

CN1c2ccc(-c3cccc(F)c3)cc2[C@H]2[C@H](CCN2C(=O)CCCCCCN)[C@H]1CO
AC50 [21]: 13 µM (active) | AC50 [22]: > 52 µM (inactive)

O=C(/C=C/c1ccc(F)cc1)N1CCN(S(=O)(=O)/C=C/c2ccccc2)CC1
IC50 [23]: > 80 µM (inactive) | IC50 [24]: 0.00675 µM (active) | IC50 [25]: 0.00359 µM (active)
